This assay relates to L1210 leukemia ip in BDF1 mice, survival T/C. Nature of the assay: NCI In Vivo Anticancer Drug Screen. Data for tumor model L1210 Leukemia (intraperitoneal) in B6D2F1 (BDF1) mice. As to conditions: endpoint: mean survival time, higher = longer survival. A digest of the protocol:
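Ratio derived from survival: compound-dosed mice over vehicle-dosed mice, all bearing a transplantable tumor.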

[1] abbreviates: dose: 100.0 mg/kg/injection, schedule: Q04DX003 (ip), vehicle: Klucel (hydroxypropylcellulose) (HPC).
The mark [2] stands for this setting: dose: 200.0 mg/kg/injection, schedule: Q04DX003 (ip), vehicle: Klucel (hydroxypropylcellulose) (HPC).
Setting [3] is: dose: 400.0 mg/kg/injection, schedule: Q04DX003 (ip), vehicle: Klucel (hydroxypropylcellulose) (HPC).

Data on 11 compounds can be found in PubChem BioAssay AID248 (DTP/NCI, 2004).

SMILES strings stand for the structures. “And” between values parts separate entries of the source, which are not always exact repeats. Equal values may be shown once. Toxic doses and inconclusive results are not listed.

As for `COCCOC`, the T/C is, setting by setting: (dose: 86.0 mg/kg/injection, schedule: Q01DX Z (ip), vehicle: saline) 103 % of control; (dose: 100.0 mg/kg/injection, schedule: Q04DX003 (ip), vehicle: acetone) 107 % of control; (dose: 125.0 mg/kg/injection, schedule: Q01DX Z (ip), vehicle: saline) 106 % of control; (dose: 130.0 mg/kg/injection, schedule: Q01DX Z (ip), vehicle: saline) 106 % of control; (dose: 200.0 mg/kg/injection, schedule: Q04DX003 (ip), vehicle: acetone) 102 % of control; (dose: 250.0 mg/kg/injection, schedule: Q01DX Z (ip), vehicle: saline) 113 % of control. Also, the T/C is, setting by setting: (dose: 400.0 mg/kg/injection, schedule: Q04DX003 (ip), vehicle: acetone) 102 % of control; (dose: 450.0 mg/kg/injection, schedule: Q01DX Z (ip), vehicle: saline) 154 % of control; (dose: 500.0 mg/kg/injection, schedule: Q01DX Z (ip), vehicle: saline) 116 % of control; (dose: 675.0 mg/kg/injection, schedule: Q01DX Z (ip), vehicle: saline) 150 % of control and 160 % of control; (dose: 1500.0 mg/kg/injection, schedule: Q01DX Z (ip), vehicle: saline) 96 % of control.
`O=C(Cn1ccc(=O)[nH]c1=O)N1CCC2(CC1)SSC1(CCN(C(=O)Cn3ccc(=O)[nH]c3=O)CC1)S2`: the T/C (dose: 100.0 mg/kg/injection, schedule: Q01DX009 (ip), vehicle: saline) is 106 % of control; the T/C (dose: 100.0 mg/kg/injection, schedule: Q04DX003 (ip), vehicle: saline) was 97 % of control; the T/C (dose: 200.0 mg/kg/injection, schedule: Q01DX009 (ip), vehicle: saline) was 98 % of control; the T/C (dose: 200.0 mg/kg/injection, schedule: Q04DX003 (ip), vehicle: saline) was 95 % of control; the T/C (dose: 400.0 mg/kg/injection, schedule: Q01DX009 (ip), vehicle: saline) was 93 % of control; the T/C (dose: 400.0 mg/kg/injection, schedule: Q04DX003 (ip), vehicle: saline) is 92 % of control.
Take `Cc1cccc(Nc2cc(N)nc(N)n2)c1`: where the note is “dose: 50.0 mg/kg/injection, schedule: Q01DX Z (ip), vehicle: methylcellulose (MC)”, the T/C was 96 % of control.
Regarding `CCCOC(=O)NNC(=O)OCCC`, the T/C (dose: 75.0 mg/kg/injection, schedule: Q01DX009 (ip), vehicle: Klucel (hydroxypropylcellulose) (HPC)) was 93 % of control.
`O=C(c1ccccc1)C1C(c2ccccc2)N1C(=O)c1ccc([N+](=O)[O-])cc1` (stereo not given): the T/C reads like this: (dose: 75.0 mg/kg/injection, schedule: Q01DX001 (ip), vehicle: saline with Tween-80) 96 % of control; (dose: 150.0 mg/kg/injection, schedule: Q01DX001 (ip), vehicle: saline with Tween-80) 86 % of control; (dose: 300.0 mg/kg/injection, schedule: Q01DX001 (ip), vehicle: saline with Tween-80) 91 % of control.
In the case of `CC(=O)c1c(C)[nH]c(C(=O)OC(C)(C)C)c1C`, the T/C runs as follows: (dose: 100.0 mg/kg/injection, schedule: Q01DX001 (ip), vehicle: Klucel (hydroxypropylcellulose) (HPC)) 95 % of control; under setting [1], 102 % of control; (dose: 200.0 mg/kg/injection, schedule: Q01DX001 (ip), vehicle: Klucel (hydroxypropylcellulose) (HPC)) 97 % of control; under setting [2], 96 % of control; (dose: 400.0 mg/kg/injection, schedule: Q01DX001 (ip), vehicle: Klucel (hydroxypropylcellulose) (HPC)) 95 % of control; under setting [3], 96 % of control.
For the compound `CSc1ncc(CO)c(Nc2ccccc2Cl)n1`, the T/C is, setting by setting: under setting [1], 103 % of control; under setting [2], 103 % of control; under setting [3], 95 % of control.
As for `Brc1cnn2c1NCC2`, the T/C (dose: 12.5 mg/kg/injection, schedule: Q01DX009 (ip), vehicle: water) was 100 % of control; the T/C (dose: 12.5 mg/kg/injection, schedule: Q04DX003 (ip), vehicle: water) is 95 % of control; the T/C (dose: 25.0 mg/kg/injection, schedule: Q01DX009 (ip), vehicle: water) is 101 % of control; the T/C (dose: 25.0 mg/kg/injection, schedule: Q04DX003 (ip), vehicle: water) was 100 % of control; the T/C (dose: 50.0 mg/kg/injection, schedule: Q01DX009 (ip), vehicle: water) is 97 % of control; the T/C (dose: 50.0 mg/kg/injection, schedule: Q04DX003 (ip), vehicle: water) is 101 % of control. The T/C is, setting by setting: (dose: 100.0 mg/kg/injection, schedule: Q01DX009 (ip), vehicle: water) 97 % of control and 89 % of control; (dose: 200.0 mg/kg/injection, schedule: Q01DX009 (ip), vehicle: water) 93 % of control.
Turning to `CCCCCCN(CCCCCC)C(C)=O`, the T/C was 103 % of control (dose: 50.0 mg/kg/injection, schedule: Q04DX003 (ip), vehicle: other); 96 % of control (dose: 100.0 mg/kg/injection, schedule: Q01DX001 (ip), vehicle: other); 98 % of control (dose: 100.0 mg/kg/injection, schedule: Q04DX003 (ip), vehicle: other); 96 % of control (dose: 200.0 mg/kg/injection, schedule: Q01DX001 (ip), vehicle: other); 93 % of control (dose: 200.0 mg/kg/injection, schedule: Q04DX003 (ip), vehicle: other).
Consider `COc1cc(OC)c(NC(=O)C(Cl)(Cl)Cl)cc1Cl`, for which the T/C was 98 % of control (dose: 100.0 mg/kg/injection, schedule: Q04DX002 (ip), vehicle: Klucel (hydroxypropylcellulose) (HPC)); 95 % of control (dose: 200.0 mg/kg/injection, schedule: Q04DX002 (ip), vehicle: Klucel (hydroxypropylcellulose) (HPC)); 95 % of control (dose: 400.0 mg/kg/injection, schedule: Q04DX002 (ip), vehicle: Klucel (hydroxypropylcellulose) (HPC)).
Consider `CCOC(=O)C(C(=O)OCC)c1cc(NC(=O)c2ccccc2)ccc1NC(=O)c1ccccc1`, for which the T/C was 98 % of control (dose: 100.0 mg/kg/injection, schedule: Q04DX003 (ip), vehicle: saline with Tween-80); 95 % of control (dose: 200.0 mg/kg/injection, schedule: Q04DX003 (ip), vehicle: saline with Tween-80); 95 % of control (dose: 400.0 mg/kg/injection, schedule: Q04DX003 (ip), vehicle: saline with Tween-80).
